Source: patent US6562825B1, “Piperazine derivatives as modulators of chemokine receptor activity” (Astrazeneca UK Limited, priority 1999, dated 2003)
Counter-ions that a name gives are not always drawn.

Compound	melting point [°C]
O=C(O)COc1cc(Cl)ccc1C(=O)NCCN1CCN(Cc2ccc(Cl)c(Cl)c2)CC1 [Example 2, 2-{5-Chloro-2-[({2-[4-(3,4-dichlorobenzyl)-1-piperazinyl]ethyl}amino)carbonyl]phenoxy}acetic acid]	118 to 120
CNC(=O)COc1cc(Cl)ccc1C(=O)NCCN1CCN(Cc2ccc(Cl)c(Cl)c2)CC1 [Example 6, 4-Chloro-N-{2-[4-(3,4-dichlorobenzyl)-1-piperazinyl]ethyl}-2-[2-(methylamino)-2-oxoethoxy]benzamide]	137 to 138
CC(c1ccc(Cl)cc1)N1CCN(CCNC(=O)c2ccc(Cl)cc2OCC(=O)N(C)C)CC1 (stereo not drawn) (as salt: hydrochloride) [Example 9, 4-Chloro-N-(2-{4-[1-(4-chlorophenyl)ethyl]-1-piperazinyl}ethyl)-2-[2-(dimethylamino)-2-oxoethoxy]benzamide hydrochloride]	216 to 217
CC(C)(CO)NC(=O)COc1cc(Cl)ccc1C(=O)NCCN1CCN(Cc2ccc(Cl)c(Cl)c2)CC1 [Example 5, 4-Chloro-N-{2-[4-(3,4-dichlorobenzyl)-1-piperazinyl]ethyl}-2-{2[(2-hydroxy-1,1-dimethylethyl)amino]-2-oxoethoxy}benzamide]	77 to 78
CN(C)C(=O)COc1cc(Cl)ccc1C(=O)NCCN1CCN(CCc2ccccc2)CC1 [Example 1, 4-Chloro-2-[2-(dimethylamino)-2-oxoethoxy]-N-[2-(4-phenethyl-1-piperazinyl)ethyl]benzamide]	159 to 160
CN(C)CCN(C)C(=O)COc1cc(Cl)ccc1C(=O)NCCN1CCN(Cc2ccc(Cl)c(Cl)c2)CC1	220 to 222
CN(C)C(=O)COc1cc(Cl)ccc1C(=O)NCCN1CCN(Cc2ccc(Cl)c(Cl)c2)CC1 (as salt: hydrochloride) [Example 3, 4-Chloro-N-{2-[4-(3,4-dichlorobenzyl)-1-piperazinyl]ethyl}-2-[2-(dimethylamino)-2-oxoethoxy]benzamide dihydrochloride]	162 to 163
CN(C)C(=O)COc1cc(Cl)ccc1C(=O)N(C)CCN1CCN(Cc2ccc(Cl)c(Cl)c2)CC1 (as salt: hydrochloride) [Example 13, 4-Chloro-N-{2-[4-(3,4-dichlorobenzyl)-1-piperazinyl]ethyl}-2-[2-dimethylamino)-2-oxoethoxy]-N-methylbenzamide trihydrochloride]	252 to 253
CCN(CC)C(=O)COc1cc(Cl)ccc1C(=O)NCCN1CCN(Cc2ccc(Cl)c(Cl)c2)CC1 (as salt: hydrochloride) [Example 10, dihydrochloride]	185 to 188
O=C(O)CNC(=O)COc1cc(Cl)ccc1C(=O)NCCN1CCN(Cc2ccc(Cl)c(Cl)c2)CC1 [Example 12, 2-[(2-{5-Chloro-2-[({2-[4-(3,4-dichlorobenzyl)-1-piperazinyl]ethyl}amino)carbonyl]phenoxy}acetyl)amino]acetic acid]	214 to 216
O=C(NCCN1CCN(Cc2ccc(Cl)c(Cl)c2)CC1)c1ccc(Cl)cc1OCC(=O)N1CCCC1 [Example 7, 4-Chloro-N-{2-[4-(3,4-dichlorobenzyl)-1-piperazinyl]ethyl}-2-[2-oxo-2-(1-pyrrolidinyl)ethoxy]benzamide]	157 to 158
CN(C)C(=O)COc1cc(Cl)ccc1C(=O)NCCN1CCN(C(c2ccccc2)c2ccccc2)CC1 (as salt: hydrochloride) [Example 14, N-[2-(4-Benzhydryl-1-piperazinyl)ethyl]-4-chloro-2-[2-(dimethylamino)-2-oxoethoxy]benzamide trihydrochloride]	228 to 229
NC(=O)COc1cc(Cl)ccc1C(=O)NCCN1CCN(Cc2ccc(Cl)c(Cl)c2)CC1 [Example 8, 2-(2-Amino-2-oxoethoxy)-4-chloro-N-{2-[4-(3,4-dichlorobenzyl)-1-piperazinyl]ethyl}benzamide]	120 to 122
CC1CN(Cc2ccc(Cl)c(Cl)c2)C(C)CN1CCNC(=O)c1ccc(Cl)cc1OCC(=O)N(C)C (stereo not drawn) (as salt: hydrochloride) [Example 16, E-4-Chloro-N-{2-[4-(3,4-dichlorobenzyl)-2,5-dimethyl-1-piperazinyl]ethyl}-2-[2-(dimethylamino)-2-oxoethoxy]benzamide dihydrochloride]	220 to 221
CC(CO)NC(=O)COc1cc(Cl)ccc1C(=O)NCCN1CCN(Cc2ccc(Cl)c(Cl)c2)CC1 (stereo not drawn) [Example 4, 4-Chloro-N-{2-[4-(3,4-dichlorobenzyl)-1-piperazinyl]ethyl}-2-{2-[(2-hydroxy-1-methylethyl)amino]-2-oxoethoxy}benzamide]	115 to 116
